# ChEMBL document CHEMBL5346934 (J Med Chem, 2023)
# Assays:
# Monkeypox virus [1] = assay: Antiviral activity against Monkeypox virus Zr-599 infected in African green monkey Vero E6 cells assessed as reduction in plaque formation measured after 72 hrs by microscopic analysis; assay type: functional, organism-based; settings: Zr-599, Vero C1008, 72 h
# Vaccinia virus [2] = assay: Antiviral activity against Vaccinia virus infected in human HFF cells; assay type: functional, organism-based; settings: Orthopoxvirus vaccinia
# Human alphaherpesvirus 2 = assay: Antiviral activity against Herpes simplex virus 2; assay type: functional, organism-based
# Vaccinia virus [3] = assay: Antiviral activity against Vaccinia virus infected in African green monkey Vero cells; assay type: functional, organism-based; settings: Orthopoxvirus vaccinia
# Variola virus [4] = assay: Antiviral activity against Variola virus 7124 infected in monkey LLC-MK2 cells; assay type: functional, organism-based; settings: Variola virus, 7124, LLC-MK2
# Vaccinia virus [5] = assay: Antiviral activity against Vaccinia virus Copenhagen infected in human HFF cells assessed as reduction in viral replication measured after 3 days; assay type: functional, organism-based; settings: Orthopoxvirus vaccinia, 72 h
# Vaccinia virus [6] = assay: Antiviral activity against Cowpox virus Brighton infected in human HFF cells assessed as reduction in viral replication measured after 3 days; assay type: functional, organism-based; settings: Orthopoxvirus vaccinia, 72 h
# Vaccinia virus [7] = assay: Antiviral activity against Vaccinia virus Copenhagen infected in HFF cells measured after 3 days by colorimetric assay; assay type: functional, organism-based; settings: Orthopoxvirus vaccinia, 72 h
# Cowpox virus [8] = assay: Antiviral activity against Cowpox virus Brighton infected in Vero cells measured after 4 days by colorimetric assay; assay type: functional, organism-based; settings: 96 h
# Vaccinia virus [9] = assay: Antiviral activity against Vaccinia virus IHD-J infected in BSC40 cells assessed as reduction in plaque formation measured after 72 hrs by crystal violet staining based analysis; assay type: functional, organism-based; settings: Orthopoxvirus vaccinia, BSC-40, 72 h
# Vaccinia virus [10] = assay: Antiviral activity against Vaccinia virus WR-GFP infected in BSC40 cells assessed as reduction in plaque formation measured after 72 hrs by crystal violet staining based analysis; assay type: functional, organism-based; settings: Orthopoxvirus vaccinia, BSC-40, 72 h
# Vaccinia virus [11] = assay: Antiviral activity against Vaccinia virus infected in African green monkey Vero cells incubated for 24 hrs; assay type: functional, organism-based; settings: Orthopoxvirus vaccinia
# Ectromelia virus = assay: Antiviral activity against ectromelia virus K-1 infected in Vero cells measured after 4 days by colorimetric assay; assay type: functional, organism-based; settings: K-1, Vero, 96 h
# Monkeypox virus [12] = assay: Antiviral activity against Monkeypox virus V79-1-005 infected in Vero cells measured after 4 days by colorimetric assay; assay type: functional, organism-based; settings: V79-1-005, Vero, 96 h
# Vaccinia virus [13] = assay: Antiviral activity against Vaccinia virus infected in Vero cells measured after 4 days by colorimetric assay; assay type: functional, organism-based; settings: Orthopoxvirus vaccinia, 96 h
# Vaccinia virus [14] = assay: Antiviral activity against Vaccinia virus Copenhagen infected in human HFF cells assessed as assessed as reduction in virus-induced cytopathic effect incubated for 7 days by microscopic analysis; assay type: functional, organism-based; settings: Orthopoxvirus vaccinia, 168 h
# Cowpox virus [15] = assay: Antiviral activity against Cowpox virus Brighton infected in human HFF cells assessed as assessed as reduction in virus-induced cytopathic effect incubated for 7 days by microscopic analysis; assay type: functional, organism-based; settings: 168 h
# Vaccinia virus [16] = assay: Antiviral activity against Vaccinia virus infected in African green monkey Vero cells assessed as reduction virus induced cytopathic effect incubated for 24 hrs by MTT assay; assay type: functional, organism-based; settings: Orthopoxvirus vaccinia
# Vaccinia virus [17] = assay: Antiviral activity against Vaccinia virus Copenhagen infected in African green monkey Vero cells; assay type: functional, organism-based; settings: Orthopoxvirus vaccinia
# Cowpox virus [18] = assay: Antiviral activity against Cowpox virus Grishak infected in African green monkey Vero cells; assay type: functional, organism-based
# [19] = Inhibition of D4 receptor (unknown origin); parameters: species or system Homo sapiens
# Variola virus [20] = assay: Antiviral activity against Variola virus 7124 infected in African green monkey BSC-1 cells; assay type: functional, organism-based; settings: Variola virus, 7124, BSC-1
# Vaccinia virus [21] = assay: Antiviral activity against Vaccinia virus infected in African green monkey BSC-1 cells; assay type: functional, organism-based, Orthopoxvirus vaccinia; settings: Orthopoxvirus vaccinia, BSC-1
# Vaccinia virus [22] = assay: Antiviral activity against Vaccinia virus VG9 infected in African green monkey BSC-1 cells; assay type: functional, organism-based, Orthopoxvirus vaccinia; settings: Orthopoxvirus vaccinia, VG9, BSC-1
# Cowpox virus [23] = assay: Antiviral activity against Cowpox virus infected in African green monkey BSC-1 cells; assay type: functional, organism-based
# Monkeypox virus [24] = assay: Antiviral activity against Monkeypox virus infected in African green monkey BSC-1 cells; assay type: functional, organism-based
# Vaccinia virus [25] = assay: Antiviral activity against Vaccinia virus infected in African green monkey BSC-1 cells incubated for 24 hrs by microscopic analysis; assay type: functional; settings: Orthopoxvirus vaccinia
compound,measurement,setting,value
OC(c1cc(C(F)(F)F)nc2c(C(F)(F)F)cccc12)C1CCCCN1 (configuration not stated) [MEFLOQUINE],EC50,Monkeypox virus [1],5.19 µM
NC(CSC1(c2ccc(Cl)cc2)c2ccccc2-c2ccccc21)C(=O)O (configuration not stated),IC50,Vaccinia virus [2],47.5 µM
same,IC50,Human alphaherpesvirus 2,34.8 µM
Oc1ccc(Cl)cc1Sc1cc(Cl)ccc1O [FENTICLOR],IC50,Vaccinia virus [2],5.7 µM
same,IC50,Human alphaherpesvirus 2,2.4 µM
CC1(C)[C@H]2CC[C@]1(C)[C@H](OC(=O)CCCN1CCOCC1)C2,IC50,Vaccinia virus [3],7.95 µM
Nc1ccn([C@@H]2C=C(CO)[C@@H](O)[C@H]2O)c(=O)n1,EC50,Variola virus [4],0.03 µM
CC1(C)[C@@H]2CC[C@@]1(C)[C@H](NC(=O)CCN1CCOCC1)C2,IC50,Vaccinia virus [3],7.47 µM
CN1C(=O)/C(=N\NC(N)=S)c2ccccc21 [METHISAZONE],EC50,Vaccinia virus [5],3.3 µM
same,EC50,Vaccinia virus [6],14 µM
Cc1cn([C@H]2C[C@H](O)[C@]3(CO)C[C@H]23)c(=O)[nH]c1=O [(NORTH)-METHANOCARBATHYMIDINE],IC50,Vaccinia virus [7],0.55 µM
same,IC50,Cowpox virus [8],1.5 µM
O=C1CN(C(=O)c2nccs2)C(c2cccc(Cl)c2)c2cc(Br)ccc2N1 (configuration not stated),EC50,Vaccinia virus [9],0.5 µM
same,IC50,Vaccinia virus [10],1.3 µM
CCc1ccc(S(=O)(=O)c2ccc(Cl)cc2)cc1,EC50,Vaccinia virus [11],18.6 µM
O=C(NNC(=O)C1C2C=CC(C3CC23)C1C(=O)O)c1ccc(C(F)(F)F)cc1 (configuration not stated),EC50,Ectromelia virus,0.011 µg/mL
same,EC50,Monkeypox virus [12],0.013 µg/mL
same,EC50,Vaccinia virus [13],0.001 µg/mL
O=S(=O)(c1ccc(C2=CSC(Nc3ccc(F)cc3)N2CCCCCCO)cc1)N1CCCC1 (configuration not stated),EC50,Vaccinia virus [14],4.6 µM
same,EC50,Cowpox virus [15],4.5 µM
CCCCCCCCCCCCCCCCOCCCOP(=O)(O)CO[C@H](CO)Cn1ccc(N)nc1=O [BRINCIDOFOVIR],EC50,Cowpox virus [8],0.6 µM
CCC(C(=O)Nc1sc(C(N)=O)c(C)c1C(=O)OC)c1ccccc1 (configuration not stated),EC50,Vaccinia virus [16],19.7 µM
same,EC50,Vaccinia virus [17],18.7 µM
same,EC50,Cowpox virus [18],8.4 µM
same,IC50,[19],13.4 µM
CC(C)C(=O)OC[C@H]1O[C@@H](n2cc/c(=N\O)[nH]c2=O)[C@H](O)[C@@H]1O [MOLNUPIRAVIR],EC50,Monkeypox virus [1],1.35 µM
O=C1c2c(O)ccc(O)c2C(=O)c2c(NCCNCCO)ccc(NCCNCCO)c21 [MITOXANTRONE],EC50,Variola virus [20],0.25 µM
same,EC50,Vaccinia virus [21],0.5 µM
same,EC50,Vaccinia virus [22],0.7 µM
same,EC50,Cowpox virus [23],0.25 µM
same,EC50,Monkeypox virus [24],0.8 µM
CCCCCCCCNCCC[C@@H](C)[C@H]1CC[C@H]2[C@@H]3[C@H](OCCCN)C[C@@H]4C[C@H](OCCCN)CC[C@]4(C)[C@H]3C[C@H](OCCCN)[C@]12C,EC90,Vaccinia virus [25],9.15 µM
